# ChEMBL document CHEMBL1955774, “Radiosynthesis of [11C]BBAC and [11C]BBPC as potential PET tracers for orexin2 receptors” (Bioorg Med Chem Lett, 2012)
# Assays:
# Brain [1] = assay: Drug uptake in anesthetized rhesus monkey brain at 1.5 ug measured for 122 mins by PET analysis; format: ADME, tissue-based, Macaca mulatta; conditions: in vivo
# [2] = Partition coefficient, log P of the compound by shake flask method; format: physicochemical; conditions: octanol/water
# Brain [3] = assay: Drug uptake in anesthetized rhesus monkey brain at 1.7 ug measured for 122 mins by PET analysis; format: ADME, tissue-based, Macaca mulatta; conditions: in vivo
SMILES,Drug uptake (Brain [1]),logP [2],Drug uptake (Brain [3])
[11CH3]n1c(SCC(=O)N2CCC[C@H]2C(=O)Nc2ccccc2-c2ccccc2)nc2ccccc21,Not Active,3.4,
[11CH3]n1c(CCC(=O)N2CCC[C@H]2C(=O)Nc2ccccc2-c2ccccc2)nc2ccccc21,,2.8,Not Active
